According to ChEMBL document CHEMBL1201862, “PubChem BioAssay data set” (2004):
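Cultured in 96-well plates, cells were exposed to test compound for 48 hours across five concentrations. GI50 = concentration required for 50% inhibition of growth.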 Active and inactive are the calls of the source. Cut-off read from the data, not from the text of the source: active = GI50 up to about 1.1 µM and inactive = higher.

Legend:
Experiment in all cases: DTP human tumour cell line panel, 48 h
ACHN = test system: ACHN
NCI-H522 = test system: NCI-H522
SK-MEL-2 = test system: SK-MEL-2
SF-295 = test system: SF-295
UACC-62 = test system: UACC-62
HL-60 = test system: HL-60
SNB-19 = test system: SNB-19
Malme-3M = test system: Malme-3M
KM12 = test system: KM12
T47D = test system: T47D
K562 = test system: K562
MDA-N = test system: MDA-N
SN12C = test system: SN12C
EKVX = test system: EKVX
TK-10 = test system: TK-10
UACC-257 = test system: UACC-257
HOP-62 = test system: HOP-62
MOLT-4 = test system: MOLT-4
HCT-116 = test system: HCT-116
SR = test system: SR

SMILES	GI50 (ACHN)	GI50 (NCI-H522)	GI50 (SK-MEL-2)	GI50 (SF-295)	GI50 (UACC-62)	GI50 (HL-60)	GI50 (SNB-19)	GI50 (Malme-3M)	GI50 (KM12)	GI50 (T47D)	GI50 (K562)	GI50 (MDA-N)	GI50 (SN12C)	GI50 (EKVX)	GI50 (TK-10)	GI50 (UACC-257)	GI50 (HOP-62)	GI50 (MOLT-4)	GI50 (HCT-116)	GI50 (SR)
Cc1cc(-c2nc3ccc(F)cc3s2)ccc1NC(=O)C(N)CCCCN (stereo not given)	12.7 µM (inactive)	5.9 µM (inactive)	10.1 µM (inactive)	6.93 µM (inactive)	10.8 µM (inactive)	2.9 µM (inactive)	10.2 µM (inactive)	18.2 µM (inactive)	2.02 µM (inactive)	0.027 µM (active)	3.45 µM (inactive)	2.52 µM (inactive)	7.76 µM (inactive)	12.6 µM (inactive)	0.0731 µM (active)	12.8 µM (inactive)	3.22 µM (inactive)	2.34 µM (inactive)	3.71 µM (inactive)	1.96 µM (inactive)
CN(c1ccc(Cl)cc1)S(=O)(=O)c1ccccc1	> 100 µM (inactive)	76.7 µM (inactive)	> 100 µM (inactive)	65.3 µM (inactive)	48.4 µM (inactive)	15 µM (inactive)	97.7 µM (inactive)	> 100 µM (inactive)	40.8 µM (inactive)	34.2 µM (inactive)	36.8 µM (inactive)	64.9 µM (inactive)	> 100 µM (inactive)	37.6 µM (inactive)	65.6 µM (inactive)	> 100 µM (inactive)	71.9 µM (inactive)	28 µM (inactive)	37.5 µM (inactive)	32.1 µM (inactive)
Clc1ccc(Cc2nc3ccccc3nc2-c2cccc(Cl)c2)cc1	1.93 µM (inactive)	1.61 µM (inactive)	3.24 µM (inactive)	17.1 µM (inactive)	1.86 µM (inactive)	2.51 µM (inactive)	1.8 µM (inactive)	2.25 µM (inactive)	3.48 µM (inactive)	3.35 µM (inactive)	1.94 µM (inactive)	2.28 µM (inactive)	2.94 µM (inactive)	17.5 µM (inactive)	12.3 µM (inactive)	13.8 µM (inactive)	17.8 µM (inactive)	2.06 µM (inactive)	1.72 µM (inactive)	1.54 µM (inactive)
C[C@@H]1CC[C@@]2(NC1)O[C@H]1C[C@H]3[C@@H]4CC[C@H]5C[C@@H](O)CC[C@]5(C)[C@H]4CC[C@]3(C)[C@H]1[C@@H]2C	33.6 µM (inactive)	> 100 µM (inactive)	> 100 µM (inactive)	35.5 µM (inactive)	57.3 µM (inactive)	21.6 µM (inactive)	30.6 µM (inactive)	> 100 µM (inactive)	27.3 µM (inactive)	> 100 µM (inactive)	63.1 µM (inactive)	36 µM (inactive)	55.5 µM (inactive)	> 100 µM (inactive)	35.3 µM (inactive)	> 100 µM (inactive)	64.4 µM (inactive)	> 100 µM (inactive)	45.5 µM (inactive)	35.5 µM (inactive)
COC(=O)[C@@]12CSC[C@]1(C(=O)OC)N[C@@H](c1ccccc1O)C2	> 100 µM (inactive)	> 100 µM (inactive)	> 100 µM (inactive)	> 100 µM (inactive)	> 100 µM (inactive)	> 100 µM (inactive)	> 100 µM (inactive)	> 100 µM (inactive)	> 100 µM (inactive)	> 100 µM (inactive)	> 100 µM (inactive)	> 100 µM (inactive)	> 100 µM (inactive)	> 100 µM (inactive)	> 100 µM (inactive)	> 100 µM (inactive)	> 100 µM (inactive)	> 100 µM (inactive)	> 100 µM (inactive)	> 100 µM (inactive)
CCOC(=O)C1=NN(c2ccc([N+](=O)[O-])cc2)[C@@]2(C)C[C@]3(c4ccccc4)N(c4ccc([N+](=O)[O-])cc4)N=C(C(=O)OCC)N3c3ccccc3N12	> 100 µM (inactive)	> 100 µM (inactive)	> 100 µM (inactive)	> 100 µM (inactive)	> 100 µM (inactive)	> 100 µM (inactive)	> 100 µM (inactive)	> 100 µM (inactive)	> 100 µM (inactive)	> 100 µM (inactive)	> 100 µM (inactive)	> 100 µM (inactive)	> 100 µM (inactive)	> 100 µM (inactive)	> 100 µM (inactive)	> 100 µM (inactive)	> 100 µM (inactive)	> 100 µM (inactive)	> 100 µM (inactive)	> 100 µM (inactive)
CC1OC(n2cnc3c(N)nc(Cl)nc32)C(C)(O)C1O (stereo not given)	> 25 µM (inactive)	> 25 µM (inactive)	> 25 µM (inactive)	> 25 µM (inactive)	> 25 µM (inactive)	> 25 µM (inactive)	> 25 µM (inactive)	> 25 µM (inactive)	> 25 µM (inactive)	> 25 µM (inactive)	> 25 µM (inactive)	> 25 µM (inactive)	> 25 µM (inactive)	> 25 µM (inactive)	> 25 µM (inactive)	> 25 µM (inactive)	> 25 µM (inactive)	> 25 µM (inactive)	> 25 µM (inactive)	> 25 µM (inactive)
Cc1ccnc(NC(NC(=O)c2ccccc2)(C(F)(F)F)C(F)(F)F)c1	> 100 µM (inactive)	> 100 µM (inactive)	> 100 µM (inactive)	> 100 µM (inactive)	> 100 µM (inactive)	> 100 µM (inactive)	> 100 µM (inactive)	> 100 µM (inactive)	> 100 µM (inactive)	> 100 µM (inactive)	> 100 µM (inactive)	> 100 µM (inactive)	> 100 µM (inactive)	> 100 µM (inactive)	> 100 µM (inactive)	> 100 µM (inactive)	> 100 µM (inactive)	> 100 µM (inactive)	> 100 µM (inactive)	41.1 µM (inactive)
Cc1ccc2ccccc2c1CSc1nc(N)nc2c1ncn2CC(C)C	16.4 µM (inactive)	8.71 µM (inactive)	17 µM (inactive)	5.86 µM (inactive)	26.3 µM (inactive)	16.2 µM (inactive)	48.3 µM (inactive)	9.31 µM (inactive)	15.2 µM (inactive)	5.05 µM (inactive)	6.41 µM (inactive)	15.7 µM (inactive)	40 µM (inactive)	13.6 µM (inactive)	29.6 µM (inactive)	11.7 µM (inactive)	28.9 µM (inactive)	4.73 µM (inactive)	9.82 µM (inactive)	4.79 µM (inactive)
COc1c(O)cc(C(=O)O[C@@H]2Cc3c(O)cc(O)cc3O[C@@H]2c2cc(O)c(O)c(O)c2)cc1O	30.6 µM (inactive)	24.4 µM (inactive)	63.2 µM (inactive)	20.3 µM (inactive)	25.8 µM (inactive)	19.7 µM (inactive)	21.4 µM (inactive)	> 100 µM (inactive)	20.1 µM (inactive)	26.2 µM (inactive)	22.8 µM (inactive)	24.4 µM (inactive)	19.7 µM (inactive)	24.8 µM (inactive)	> 100 µM (inactive)	53.3 µM (inactive)	30.7 µM (inactive)	24.2 µM (inactive)	17.9 µM (inactive)	18.7 µM (inactive)
COC(=O)c1cc2c(cc1CC1Cc3cc4c(cc3C1=O)CCC4)CCC2 (stereo not given)	> 100 µM (inactive)	34.1 µM (inactive)	36.4 µM (inactive)	30.7 µM (inactive)	47.2 µM (inactive)	> 100 µM (inactive)	> 100 µM (inactive)	53 µM (inactive)	32.4 µM (inactive)	24.9 µM (inactive)	20.2 µM (inactive)	18.2 µM (inactive)	57.5 µM (inactive)	67.5 µM (inactive)	73.1 µM (inactive)	39.1 µM (inactive)	> 100 µM (inactive)	13.5 µM (inactive)	33.4 µM (inactive)	45.4 µM (inactive)
O/N=N\c1nc(-c2ccccn2)nc2ccccc12	2.14 µM (inactive)	1.89 µM (inactive)	4.68 µM (inactive)	22 µM (inactive)	7.18 µM (inactive)	0.984 µM (active)	42.3 µM (inactive)	1.24 µM (inactive)	20.6 µM (inactive)	2.83 µM (inactive)	2.23 µM (inactive)	19.6 µM (inactive)	23 µM (inactive)	18.2 µM (inactive)	17.4 µM (inactive)	7.69 µM (inactive)	1.98 µM (inactive)	0.373 µM (active)	3.33 µM (inactive)	2.38 µM (inactive)
O=C(O)CCC[C@]1(O)O[C@@]2(CCCC2=O)[C@]2(O)CCC[C@@]21O	> 100 µM (inactive)	0.106 µM (active)	> 100 µM (inactive)	4.24 µM (inactive)	> 100 µM (inactive)	> 100 µM (inactive)	> 100 µM (inactive)	> 100 µM (inactive)	> 100 µM (inactive)	> 100 µM (inactive)	> 100 µM (inactive)	> 100 µM (inactive)	> 100 µM (inactive)	> 100 µM (inactive)	> 100 µM (inactive)	> 100 µM (inactive)	> 100 µM (inactive)	> 100 µM (inactive)	> 100 µM (inactive)	> 100 µM (inactive)
c1ccc(NN(Cc2cnccn2)c2ccccc2)cc1	> 100 µM (inactive)	44 µM (inactive)	> 100 µM (inactive)	73.8 µM (inactive)	81.8 µM (inactive)	67.5 µM (inactive)	> 100 µM (inactive)	> 100 µM (inactive)	> 100 µM (inactive)	68.4 µM (inactive)	47.5 µM (inactive)	40.2 µM (inactive)	63.8 µM (inactive)	75.5 µM (inactive)	> 100 µM (inactive)	51.6 µM (inactive)	> 100 µM (inactive)	42.3 µM (inactive)	60.5 µM (inactive)	61.9 µM (inactive)
